Patent US6051589A, “Diphenyloxazoline derivatives” (Bayer Aktiengesellschaft, priority 1994, dated 2000)
Where two headings read alike, the source gives them in different places.

Key:
[1] = partition coefficient log p (octanol/water); format: physicochemical
[2] = system: mustard beetle larvae (Phaedon cochleariae); test: Phaedon Larvae Test; format: in vivo; details: concentration of active compound 0.1%, cabbage leaves, read-out: degree of mortality
Method: Solvent: 3 parts by weight of dimethylformamide
(§1) Emulsifier: 1 part by weight of alkylaryl polyglycol ether
To produce a suitable preparation of active compound, 1 part by weight of active compound is mixed with the stated amount of solvent and the stated amount of emulsifier, and the concentrate is diluted with water to the desired concentration.
After the desired time, the destruction in % is determined. 100% means that all the beetle larvae have been killed; 0% means that none of the beetle larvae have been killed.

[3] = system: red spider mite Tetranychus urticae; test: Tetranychus Test (OP resistant/dipping treatment); format: in vivo; details: after 7 days, concentration of active compound 0.01%, all developmental stages, bean plants, OP resistant
Method: Tetranychus Test (OP resistant/dipping treatment)
Solvent: 7 parts by weight of dimethylformamide
as §1
To produce a suitable preparation of active compound, 1 part by weight of active compound is mixed with the stated amount of solvent and the stated amount of emulsifier, and the concentrate is diluted with emulsifier-containing water to the desired concentrations.
Bean plants (Phaseolus vulgaris) which are heavily infested with all developmental stages of the red spider mite Tetranychus urticae are dipped in a preparation of the active compound of the desired concentration.
After the desired time, the action in percent is determined. 100% means that all the spider mites have been killed, 0% means that none of the spider mites have been killed.

logD ([1]; pH 7.5, read-out: log p) | Structure (SMILES) | mortality at 0.1 % [2] | degree of mortality [3] | logD ([1]; pH: 7.4, read-out: partition coefficient log p (octanol/water))
4.78 | CC(C)(C)c1ccc(C2COC(c3cc(F)c(F)c(F)c3F)=N2)cc1 (stereo not shown) [Example 4] |  |  | 
5.13 | CC(C)(C)c1ccc(C2COC(c3c(F)cc(C(F)(F)F)cc3F)=N2)cc1 (stereo not shown) [Example 9] |  |  | 
4.45 | CC(C)(C)c1ccc(C2COC(c3c(F)ccc(F)c3F)=N2)cc1 (stereo not shown) [Example 8] |  |  | 
5.12 | CC(C)(C)c1ccc(C2COC(c3c(F)c(F)c(F)c(F)c3F)=N2)cc1 (stereo not shown) [Example 3] |  |  | 
4.43 | CC(C)(C)c1ccc(C2COC(c3c(F)cc(F)cc3F)=N2)cc1 (stereo not shown) [Example 7] |  |  | 

More lines, now with the values behind:

Structure (SMILES) | logD ([1]; pH 7.5, read-out: log p) | mortality at 0.1 % [2] | degree of mortality [3] | logD ([1]; pH: 7.4, read-out: partition coefficient log p (octanol/water))
CC(C)(C)c1ccc(C2COC(c3cc(F)c(Cl)cc3Cl)=N2)cc1 (stereo not shown) [Example 6] | 5.65 |  |  | 
COc1c(F)cc(F)c(F)c1C1=NC(c2ccc(C(C)(C)C)cc2)CO1 (stereo not shown) [Example 2] | 4.59 | 65% | 98% | 
CC(C)(C)c1ccc(C2COC(c3c(F)c(F)cc(F)c3F)=N2)cc1 (stereo not shown) [Example 1, 4-(4-tert-butylphenyl)-2-(2,3,5,6-tetrafluorophenyl)-1,3-oxazoline] |  | 65% | 98% | 4.7
CC(C)(C)c1ccc(C2COC(c3cc(F)c(F)cc3F)=N2)cc1 (stereo not shown) [Example 5] | 4.78 |  | 98% | 
CC(C)Cc1ccc(C2COC(c3c(F)c(F)cc(F)c3F)=N2)cc1 (stereo not shown) [Example 12] | 5.35 |  |  | 
Cc1ccc(C2COC(c3c(F)c(F)cc(F)c3F)=N2)cc1 (stereo not shown) [Example 14] | 3.69 |  |  | 
